Test results published in PubChem BioAssay (NCI).
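All cell lines were grown in 96-well plates and treated with compound for 48 hours. GI50 marks 50% less growth. Definition used: TGI = concentration required for complete inhibition of growth.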

Assays:
Experiment in all cases: NCI-60 cell line screen, 48 h
NCI-H522 lung = system: NCI-H522 lung
SF-268 CNS = system: SF-268 CNS
NCI/ADR-RES ovarian = system: NCI/ADR-RES ovarian
IGROV1 ovarian = system: IGROV1 ovarian
HCT-15 colon = system: HCT-15 colon
OVCAR-3 ovarian = system: OVCAR-3 ovarian
BT-549 breast = system: BT-549 breast
SK-MEL-28 melanoma = system: SK-MEL-28 melanoma
HCT-116 colon = system: HCT-116 colon
MALME-3M melanoma = system: MALME-3M melanoma

Row | SMILES | GI50 (NCI-H522 lung) | TGI (NCI-H522 lung) | GI50 (SF-268 CNS) | TGI (SF-268 CNS) | GI50 (NCI/ADR-RES ovarian) | TGI (NCI/ADR-RES ovarian) | GI50 (IGROV1 ovarian) | TGI (IGROV1 ovarian) | GI50 (HCT-15 colon) | TGI (HCT-15 colon) | GI50 (OVCAR-3 ovarian) | TGI (OVCAR-3 ovarian) | GI50 (BT-549 breast) | TGI (BT-549 breast) | GI50 (SK-MEL-28 melanoma) | TGI (SK-MEL-28 melanoma) | GI50 (HCT-116 colon) | TGI (HCT-116 colon) | GI50 (MALME-3M melanoma) | TGI (MALME-3M melanoma)
1 | COc1cc(C2CC(c3cccc(Nc4ccnc5cc(Cl)ccc45)c3)=NN2c2ccc(Cl)cc2)cc(OC)c1OC (centres undefined) | 1.57 µM | 22.8 µM | 8.16 µM | > 100 µM | 3.18 µM | > 100 µM | 3.89 µM | > 100 µM | 1.28 µM | > 100 µM | 3.72 µM | > 100 µM | 4.63 µM | 78.6 µM | 4.54 µM | > 100 µM | 1.68 µM | > 100 µM | 21.9 µM | > 100 µM
2 | COc1ccc(C=Nc2c(C(=O)Nc3cccc(Cl)c3C)sc3nc(C)c(C(=O)/C=C/c4ccc(OC)cc4)cc23)cc1 | 0.157 µM |  | 1.6 µM | > 50 µM | 0.197 µM | 1.17 µM | 1.32 µM | > 50 µM | 0.382 µM | > 50 µM | 0.267 µM | 5.95 µM | 0.787 µM | > 38.5 µM | 0.288 µM | > 50 µM | 0.362 µM | > 50 µM | 0.599 µM | > 50 µM
3 | Cc1c2ccn(O)cc2c(C)c2c1nc1ccccc12 |  | 22.3 µM |  | 27.5 µM |  | > 100 µM |  | 55.8 µM |  | > 100 µM |  | > 81.7 µM |  | 53.8 µM |  | > 100 µM |  | 24.7 µM |  | > 41.8 µM
4 | Cc1c(-c2ccc(C3CCCCC3)cc2)nc2ccc(F)cc2c1C(=O)O | 0.766 µM | > 100 µM | 0.405 µM | > 100 µM | 0.609 µM | > 100 µM | 1 µM | > 100 µM | 0.0196 µM | > 100 µM | 0.475 µM | > 100 µM | 9.89 µM | > 100 µM | 14.5 µM | > 100 µM | 0.0508 µM | > 100 µM | > 51.4 µM | > 100 µM
5 | C[C@H]1/C(=C/C(=O)OCCN(C)C)CC[C@H]2[C@H]1C(=O)C[C@H]1C(C)(C)[C@@H](O)CC[C@]21C |  | > 100 µM |  | > 100 µM |  | > 100 µM |  | > 100 µM |  | > 100 µM |  | > 100 µM |  | > 100 µM |  | > 100 µM |  | > 100 µM |  | > 100 µM
6 | NCCc1ccc(S(=O)(=O)F)cc1 | 73.4 µM | > 100 µM | > 100 µM | > 100 µM | > 100 µM | > 100 µM | 71.7 µM | > 100 µM | 64.4 µM | > 100 µM | 31.1 µM | 78.1 µM | 27.9 µM | > 100 µM | > 100 µM | > 100 µM | 53.7 µM | > 100 µM | 96.5 µM | > 100 µM
7 | COc1cc2c3cc1Oc1c(OC)c(OC)cc4c1C(=NCC4)Cc1ccc(cc1)Oc1cc(ccc1O)C[C@H]3N(C)CC2 |  | 25.3 µM |  | > 100 µM |  | 29.6 µM |  | 94.4 µM |  | 25.9 µM |  | 39.4 µM |  | 24.9 µM |  | 30.3 µM |  | 26.8 µM |  | 18 µM
8 | O=C(/C=C/c1ccc(Cl)cc1)c1ccccc(=O)c1O |  | 50.9 µM |  | 36.2 µM |  | 2.42 µM |  | 15.8 µM |  | 6.08 µM |  | 19.8 µM |  | 13.5 µM |  | 26.4 µM |  | 10.4 µM |  | 5.22 µM
9 | COC1C(O)CC(OC2CC(OC3CC(O[C@@H]4C(=O)c5c(cc6cc(OC7CC(OC8CC(O)C(O)C(C)O8)C(O)C(C)O7)c(C)c(O)c6c5O)CC4[C@H](OC)C(=O)O)OC(C)C3O)OC(C)C2O)OC1C (some centres undefined) | 1.7 µM | > 33.3 µM | 2.64 µM | > 33.3 µM | 10.3 µM | > 33.3 µM | 1.76 µM | > 33.3 µM | 6.3 µM | > 33.3 µM | 2.06 µM | > 33.3 µM | 1.8 µM | 31.8 µM | 1.48 µM | 11.7 µM | 1.25 µM | > 33.3 µM | 2.37 µM | 28.6 µM
10 | CC(=O)/C(=C/c1ccccc1)C(=O)CC(C)C | 9.68 µM | 22 µM | 14.3 µM | 33 µM | 18.2 µM | 58.9 µM | 16.4 µM | 33.6 µM | 4.69 µM | 22.3 µM | 4.69 µM | 15.9 µM | 14.9 µM | 28.9 µM | 11.5 µM | 24.9 µM | 2.05 µM | 3.97 µM | 16.7 µM | 37.3 µM
11 | CC(C)N1CCN(c2ccncc2S(=O)(=O)N2CCCCC2)CC1 |  | > 100 µM |  | > 100 µM |  | > 100 µM |  | > 100 µM |  | > 100 µM |  | > 100 µM |  | > 100 µM |  | > 100 µM |  | > 100 µM |  | > 100 µM
12 | CO[C@H]1C=CO[C@@]2(C)Oc3c(C)c(O)c4c(O)c(c(CN5CCN(C)CC5)c(O)c4c3C2=O)NC(=O)/C(C)=C\C=C[C@H](C)[C@H](O)C(C)[C@@H](O)C(C)[C@H](OC(C)=O)[C@@H]1C (some centres undefined) |  | 46.5 µM |  | > 100 µM |  | > 100 µM |  | > 100 µM |  | > 100 µM |  | 14.4 µM |  | > 100 µM |  | > 100 µM |  | 35.9 µM |  | > 100 µM
13 | CCCCCCCCCCCCCCCCCc1nccn1CCOCCO | 4.84 µg/mL | 10.2 µg/mL | 5.16 µg/mL | 10.4 µg/mL | 20.4 µg/mL | 37.5 µg/mL | 6.03 µg/mL | 13.2 µg/mL | 6.36 µg/mL | 12.2 µg/mL | 4.74 µg/mL | 9.64 µg/mL | 6.1 µg/mL | 11.7 µg/mL | 6.22 µg/mL | 11.4 µg/mL | 5.94 µg/mL | 11.9 µg/mL | 6.5 µg/mL | 13.2 µg/mL
14 | O=C1/C(=C/c2ccccc2)CN(C(=O)C(Cl)Cl)C/C1=C\c1ccccc1 | 1.08 µM | 2.69 µM | 1.75 µM | 5.2 µM | 0.452 µM | 4.92 µM | 0.708 µM | 2.2 µM | 0.248 µM | 0.77 µM | 0.33 µM | 1.06 µM | 1.24 µM | 2.69 µM | 0.68 µM | 1.81 µM | 0.209 µM | 0.527 µM | 0.996 µM | 3.06 µM
15 | N#Cc1c(NCc2ccccc2)nc(NCc2ccccc2)c(C#N)c1-c1ccc(O)cc1 | 20.2 µM | 75.1 µM | 27.3 µM | > 100 µM | 47 µM | > 100 µM | 23.5 µM | 74.8 µM | 29.6 µM | > 100 µM | 29.6 µM | 87.4 µM | 32.8 µM | > 100 µM | 66.7 µM | > 100 µM | 14.5 µM | 34.1 µM | 29.5 µM | 68.5 µM
16 | O=C1CSC(=S)N1c1ccco1 |  | 64.1 µM |  | > 100 µM |  | > 100 µM |  | > 100 µM |  | 50.9 µM |  | > 100 µM |  | 50.4 µM |  | > 100 µM |  | > 100 µM |  | > 100 µM
17 | Cn1c(=O)c(Oc2ccc(F)cc2F)cc2cnc(NC(C)(C)CO)nc21 | > 25 µM | > 25 µM | > 25 µM | > 25 µM | > 25 µM | > 25 µM | > 25 µM | > 25 µM | > 25 µM | > 25 µM | > 25 µM | > 25 µM | > 21.4 µM | > 25 µM | > 25 µM | > 25 µM | > 25 µM | > 25 µM | > 25 µM | > 25 µM
18 | CC(=O)Nc1cc2cc(N)ccc2oc1=O |  | > 100 µM |  | > 100 µM |  | > 100 µM |  | > 100 µM |  | > 100 µM |  | > 100 µM |  | > 100 µM |  | > 100 µM |  | > 100 µM |  | > 100 µM
19 | C=C(CN1CCN(c2ccc(C(F)(F)F)cc2)CC1)c1ccc(C(=O)Nc2ccccc2N)cc1 | 1.85 µM | > 100 µM | 6.78 µM | > 100 µM | 3.37 µM | > 100 µM | 18.2 µM | > 100 µM | > 100 µM | > 100 µM | 12 µM | > 100 µM | 6.93 µM | 97.8 µM | > 100 µM | > 100 µM | 11.4 µM | > 100 µM | 19.3 µM | > 100 µM
